Assay results as given in publication PMC6891813, “Piltunines A–F from the Marine-Derived Fungus Penicillium piltunense KMM 4668” (Marine Drugs, 2019).

How the values were obtained:
[1] = tested on: murine peritoneal macrophages co-incubated with lipopolysaccharide (LPS); experiment: ROS level analysis in LPS-treated macrophages (DCF-DA fluorescence); format: cell-based, Mice BALB/c; conditions: 10 μM, 1 h at 37 °C, LPS co-incubation; p < 0.05
Procedure: Figure 5 Effect of compounds on reactive oxygen species (ROS) level in murine peritoneal macrophages co-incubated with lipopolysaccharide (LPS). The compounds were tested at a concentration of 10 μM. Time of cell incubation with compounds was 1 h at 37 °C. * p < 0.05. (Student’s t-test).
The suspension of macrophages on 96-well plates (2 × 10^4 cells/well) were washed withphosphate-buffered saline (PBS) and treated with 180 µL/well of the tested compounds (10 μM) for 1 h and 20 µL/well LPS from E. coli serotype 055:В5 (Sigma-Aldrich, MA, USA, 1.0 μg/mL), which were both dissolved in PBS and cultured at 37 °C in a CO2-incubator for one hour. For the ROS levels measurement, 200 μL of 2,7-dichlorodihydrofluorescein diacetate (DCF-DA, Sigma, final concentration 10 μM) fresh solution was added to each well, and the plates were incubated for 30 min at 37 °C. The intensity of DCF-DA fluorescence was measured at λex 485 n/λem 518 nm using the plate reader PHERAstar FS (BMG Labtech, Offenburg, Germany).
Mice BALB/c were sacrificed by cervical dislocation. Peritoneal macrophages were isolated using standard procedures. For this purpose, 3 ml of PBS (pH 7.4) was injected into the peritoneal cavity and the body intensively palpated for 1–2 min. Then the peritoneal fluid was aspirated with a syringe. […]

[2] = tested on: human prostate non-cancer PNT-2 cells; experiment: MTT cytotoxicity assay, PNT-2 cells; format: cell-based; conditions: Homo sapiens, PNT2, 72 h treatment
Excerpt: (§1) We have investigated the effect of the isolated compounds 1, 1a, 2, 7–9 on the viability of human drug-resistant prostate cancer 22Rv1 cell as well as on human prostate non-cancer PNT-2 cells using an MTT assay (Table 3). We have also determined a selectivity index (SI) at for all the tested substances (Table 3). […] Note, 22Rv1 cells are known to be resistant to the hormone therapy due to the expression of androgen receptor splice variant AR-V7 [15]. Thus, the compounds which are active inAR-V7-positive 22Rv1 cells are of high clinical interest.
(§2) The human prostate cancer cells 22Rv1 and human prostate non-cancer cells PNT-2 were purchased from ATCC. Cell lines were cultured according to the manufacturers instructions in 10% FBS/RPMI media (Invitrogen). Cells were continuously kept in culture for a maximum of 3 months, and were routinely inspected microscopically for stable phenotype and regularly checked for contamination with mycoplasma. The authentity of the cells has recently been confirmed by the Multiplexion (Heidelberg, Germany) using highly polymorphic short tandem repeat loci.
(§3) The in vitro cytotoxicity of individual substances was evaluated using the MTT (3-(4,5-dimethylthiazol-2-yl)-2,5-diphenyltetrazolium bromide) assay, which was performed as previously described. The vehicle (DMSO) treated cells were used as a negative control. Treatment time was 72 h.

[3] = MTT cytotoxicity assay, PNT-2 cells; format: cell-based, human; conditions: human, PNT-2 prostate non-cancer cells, 100 µM, 72 h, read-out: Viability at 100 µM, % of Control, PNT-2 Cells
Excerpt: as §1, §2, §3

[4] = tested on: human drug-resistant prostate cancer 22Rv1 cell; experiment: MTT cytotoxicity assay, 22Rv1 cells; format: cell-based; conditions: for viability at 100 µM / IC50: Homo sapiens, 22Rv1; for viability at 100 µM: read-out: Viability at 100 µM, % of Control, 22Rv1 Cells; for IC50: 72 h treatment; for SI (selectivity index): [viability of PNT-2 cells]/[viability of 22Rv1 cells] at 100 µM
Excerpt: as §1, §2, §3

[5] = tested on: LPS-stimulated macrophages; experiment: NO (RNS) level analysis in LPS-treated macrophages (DAF FM-DA fluorescence); format: cell-based, Mice BALB/c; conditions: 1 μM (non-toxic concentration); p < 0.05
Procedure: Compound 9 suppressed NO production in LPS-stimulated macrophages at non-toxic concentration of 1 μM. NO level in these cells was decreased by 24.1 ± 0.7% (p < 0.05, Student’s t-test) in comparison with LPS-treated control (data not shown). Therefore, compound 9 may be a promising candidate for the therapy of inflammatory diseases accompanying overproduction of NO.
The suspension of macrophages on 96-well plates (2 × 10^4 cells/well) were washed with the PBS and treated with 180 µL/well of the tested compounds (10 μM) for 1 h and 20 µL/well LPS from E. coli serotype 055:В5 (Sigma, 1.0 μg/mL), which were both dissolved in PBS and cultured at 37 °C in a CO2-incubator for one hour. For the RNS levels measurement, 200 μL Diaminofluorescein-FM diacetate (DAF FM-DA, Sigma, final concentration 10 μM) fresh solution was added to each well, and the plates were incubated for 40 min at 37 °C, then replace with fresh PBS, and then incubated for an additional 30 min to allow complete de-esterification of the intracellular diacetates. The intensity of DAF FM-DA fluorescence was measured at λex 485 n/λem 520 nm using the plate reader PHERAstar FS (BMG Labtech, Offenburg, Germany).
Mice BALB/c were sacrificed by cervical dislocation. Peritoneal macrophages were isolated using standard procedures. […]

| SMILES | Effect on ROS production [1] | IC50 [2] [µM] | viability at 72 h, 100 µM [3] [%] | viability at 100 µM ([4]; 72 h, MTT assay) [%] | IC50 ([4]; MTT assay) [µM] | SI (selectivity index) ([4]; 72 h) | Cytotoxicity in cancer cells in comparison with the other substances ([4]; MTT assay, 72 h) | IC50 ([2]; positive control) [µM] | IC50 ([4]; MTT assay, positive control) [µM] | Decrease of NO level in comparison with LPS-treated control [5] [%] |
| --- | --- | --- | --- | --- | --- | --- | --- | --- | --- | --- |
| CC(=O)C1=CC[C@]23CO[C@H](C2)[C@@](O)(C(=O)O)CC[C@@H]13 [Compound 5, Piltunine E] | significant down-regulation of ROS production |  |  |  |  |  |  |  |  |  |
| COC(=O)C1(O)CCC2C(=C(C)CO)CCC23COC1C3 (centres unmarked) [Compound 1a] |  | > 100 | 80.4 | 62.2 | > 100 | 1.29 |  |  |  |  |
| C=C(C)C1(O)CCC23COC(C2)C(O)(C(=O)O)CCC31 (centres unmarked) [Compound 7, penigrisacid D] |  | > 100 | 80.7 | 63.8 | > 100 | 1.26 |  |  |  |  |
| C[C@H]1CCC[C@H](C[C@H]2Cc3cc(O)cc(O)c3C(=O)O2)O1 [Compound 8, cladosporin] |  | > 100 | 88.1 | 38.7 | 71.7 ± 8.9 |  | most cytotoxic in cancer cells |  |  |  |
| CC(=O)O[C@@]12CO[C@@H]1C[C@H](O)[C@@]1(C)C(=O)[C@H](O)C3=C(C)[C@@H](OC(=O)[C@H](O)[C@@H](NC(=O)OC(C)(C)C)c4ccccc4)C[C@@](O)([C@@H](OC(=O)c4ccccc4)[C@H]21)C3(C)C [Docetaxel, reference compound] |  |  |  |  |  |  |  | 0.0847 ± 0.0206 | 0.00278 ± 0.00107 |  |
| CC(=O)OC/C(C)=C1\CC[C@]23CO[C@H](C2)[C@@](O)(C(=O)O)CC[C@@H]13 [Compound 2, Piltunine B] |  | > 100 | 82.9 | 61.9 | > 100 | 1.34 |  |  |  |  |
| CC1OC(CC2Cc3cc(O)cc(O)c3C(=O)O2)CCC1O (centres unmarked) [Compound 9, 5’-hydroxyasperentin] | significant down-regulation of ROS production | > 100 | 55.5 | 54.9 | > 100 | 1.01 |  |  |  | 24.1 ± 0.7 |
| CC(CO)=C1CCC23COC(C2)C(O)(C(=O)O)CCC13 (centres unmarked) [Compound 1, Piltunine A] |  | > 100 | 97.2 | 65.5 | > 100 | 1.48 |  |  |  |  |
